According to US9708314B2, “Heterocyclic amide compound” (NISSAN CHEMICAL INDUSTRIES, LTD., priority 2013, dated 2017):

Legend:
Assay type in all cases: in vivo
[1] = test system: Echinochloa crus-galli var. crus-galli; assay: Test Example 3: herbicidal effect by application to foliage (Wagner pot, water depth 0.1-0.5 cm); settings: Nineteenth Table, application herbicide amount 320 g/ha; for H (herbicidal effect grade): application to foliage
Procedure, shortened: (§1)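 Three weeks after spraying, each species was graded 0–5 for herbicidal ratio, 5 being 90% or more. Application: water-diluted emulsifiable concentrate at a fixed g/ha to foliage of 14-day-old greenhouse (25–30 °C) plants in alluvial soil.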

Cyperus difformis = assay: as above; settings: Nineteenth Table, application herbicide amount 320 g/ha; for E (herbicidal effect grade): application to foliage
Procedure, shortened: as §1

[2] = test system: directly sowed Oryza sativa; assay: Test Example 3: effect on crop by application to foliage (Wagner pot, water depth 0.1-0.5 cm); settings: Nineteenth Table, application herbicide amount 320 g/ha; for b (effect on crop grade): application to foliage
Procedure, shortened: as §1

Alopecurus myosuroides = assay: Test Example 4: herbicidal effect by application to foliage (diluvial soil, plastic box); settings: for J: Application herbicide amount 320 g/ha
Procedure, shortened: (§2)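 Read-out is a 0–5 visual grade of herbicidal ratio (5: ≥90%, almost withered; 0: ≤5%) taken three weeks after treatment. Compound was applied as a diluted emulsion to stem and leaf parts of 14-day greenhouse-grown plants (25° C. to 30° C.) at rates expressed as g/ha.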

[3] = test system: Echinochloa crus-galli var. crus-galli; assay: as above; settings: for H: Application herbicide amount 320 g/ha
Procedure, shortened: as §2

Abutilon theophrasti = assay: as above; settings: for M: Application herbicide amount 320 g/ha
Procedure, shortened: as §2

Avena fatua = assay: as above; settings: for I: Application herbicide amount 320 g/ha
Procedure, shortened: as §2

Lolium multiflorum Lam. = assay: as above; settings: for K: Application herbicide amount 320 g/ha
Procedure, shortened: as §2

Galium spurium = assay: as above; settings: for Q: Application herbicide amount 320 g/ha
Procedure, shortened: as §2

Veronica persica = assay: as above; settings: application to foliage, application herbicide amount 320 g/ha
Procedure, shortened: as §2

Setaria viridis = assay: as above; settings: for G: Application herbicide amount 320 g/ha
Procedure, shortened: as §2

Chenopodium album = assay: as above; settings: for O: Application herbicide amount 320 g/ha
Procedure, shortened: as §2

Apera spica-venti. = assay: as above; settings: for L: Application herbicide amount 320 g/ha
Procedure, shortened: as §2

Digitaria ciliaris = assay: as above; settings: for F: Application herbicide amount 320 g/ha
Procedure, shortened: as §2

Leptochloa chinensis = assay: Test Example 3: herbicidal effect by application to foliage (Wagner pot, water depth 0.1-0.5 cm); settings: Nineteenth Table; application to foliage; application herbicide amount 320 g/ha
Procedure, shortened: as §1

[4] = application to foliage, application herbicide amount 320 g/ha

For `CCOC(=O)Cc1nnc2c(C(=O)Nc3nnc(C)o3)ccc(C(F)(F)F)n12` [1-042], the “H (Echinochloa crus-galli var. crus-galli) herbicidal ratio grade” value [1] was 5 (Herbicidal ratio of 90% or more (almost completely withered)), the “E (Cyperus difformis) herbicidal ratio grade” value (Cyperus difformis) was 4 (Herbicidal ratio of 70% or more and less than 90%) and the “b (directly sowed Oryza sativa) effect on crop grade” value [2] was 1 (Herbicidal ratio of 5% or more and less than 20%). For the same compound, the “J (Alopecurus myosuroides) herbicidal effect” value (Alopecurus myosuroides; [4]) was 0 (Herbicidal ratio of 5% or less (almost no effect)), the “H (Echinochloa crus-galli var. crus-galli) herbicidal effect” value [3, 4] was 5 (Herbicidal ratio of 90% or more (almost completely withered)) and the “M (Abutilon theophrasti) herbicidal effect” value (Abutilon theophrasti; [4]) was 4 (Herbicidal ratio of 70% or more and less than 90%). The “I (Avena fatua) herbicidal effect” value (Avena fatua; [4]) was 2 (Herbicidal ratio of 20% or more and less than 40%), the “K (Lolium multiflorum Lam.) herbicidal effect” value (Lolium multiflorum Lam.; [4]) was 0 (Herbicidal ratio of 5% or less (almost no effect)) and the “Q (Galium spurium) herbicidal effect” value (Galium spurium; [4]) was 3 (Herbicidal ratio of 40% or more and less than 70%). For the same compound, the “R (Veronica persica) herbicidal effect” value (Veronica persica) was 4 (Herbicidal ratio of 70% or more and less than 90%), the “G (Setaria viridis) herbicidal effect” value (Setaria viridis; [4]) was 3 (Herbicidal ratio of 40% or more and less than 70%) and the “O (Chenopodium album) herbicidal effect” value (Chenopodium album; [4]) was 5 (Herbicidal ratio of 90% or more (almost completely withered)). The “L (Apera spica-venti.) herbicidal effect” value (Apera spica-venti.; [4]) was 2 (Herbicidal ratio of 20% or more and less than 40%) and the “F (Digitaria ciliaris) herbicidal effect” value (Digitaria ciliaris; [4]) was 4 (Herbicidal ratio of 70% or more and less than 90%).
In the case of `COc1ccc(Cc2nnc3c(C(=O)Nc4nnc(C)o4)ccc(C(F)(F)F)n23)cc1` [1-069], the “H (herbicidal effect grade)” value [1] was 5 (Herbicidal ratio of 90% or more (almost completely withered)), the “E (herbicidal effect grade)” value (Cyperus difformis) was 5 (Herbicidal ratio of 90% or more (almost completely withered)) and the “D (herbicidal effect grade)” value (Leptochloa chinensis) was 5 (Herbicidal ratio of 90% or more (almost completely withered)). For the same compound, the “b (effect on crop grade)” value [2] was 1 (Herbicidal ratio of 5% or more and less than 20%), the J (Alopecurus myosuroides) was 2 (Herbicidal ratio of 20% or more and less than 40%) and the H [3] was 5 (Herbicidal ratio of 90% or more (almost completely withered)). For the same compound, the M (Abutilon theophrasti) was 3 (Herbicidal ratio of 40% or more and less than 70%), the I (Avena fatua) was 2 (Herbicidal ratio of 20% or more and less than 40%) and the K (Lolium multiflorum Lam.) was 2 (Herbicidal ratio of 20% or more and less than 40%). The Q (Galium spurium) was 3 (Herbicidal ratio of 40% or more and less than 70%), the G (Setaria viridis) was 5 (Herbicidal ratio of 90% or more (almost completely withered)) and the O (Chenopodium album) was 5 (Herbicidal ratio of 90% or more (almost completely withered)). For the same compound, the L (Apera spica-venti.) was 4 (Herbicidal ratio of 70% or more and less than 90%) and the F (Digitaria ciliaris) was 5 (Herbicidal ratio of 90% or more (almost completely withered)).
With `COc1cc(OC)cc(-c2nnc3c(C(=O)Nc4nnc(C)o4)ccc(C(F)(F)F)n23)c1` [1-070] the “H (herbicidal effect grade)” value [1] was 4 (Herbicidal ratio of 70% or more and less than 90%), the “E (herbicidal effect grade)” value (Cyperus difformis) was 5 (Herbicidal ratio of 90% or more (almost completely withered)) and the “D (herbicidal effect grade)” value (Leptochloa chinensis) was 5 (Herbicidal ratio of 90% or more (almost completely withered)). The “b (effect on crop grade)” value [2] was 0 (Herbicidal ratio of 5% or less (almost no effect)), the J (Alopecurus myosuroides) was 0 (Herbicidal ratio of 5% or less (almost no effect)) and the H [3] was 5 (Herbicidal ratio of 90% or more (almost completely withered)). The M (Abutilon theophrasti) was 4 (Herbicidal ratio of 70% or more and less than 90%), the I (Avena fatua) was 1 (Herbicidal ratio of 5% or more and less than 20%) and the K (Lolium multiflorum Lam.) was 0 (Herbicidal ratio of 5% or less (almost no effect)). The Q (Galium spurium) was 3 (Herbicidal ratio of 40% or more and less than 70%), the G (Setaria viridis) was 4 (Herbicidal ratio of 70% or more and less than 90%) and the O (Chenopodium album) was 5 (Herbicidal ratio of 90% or more (almost completely withered)). The L (Apera spica-venti.) was 0 (Herbicidal ratio of 5% or less (almost no effect)) and the F (Digitaria ciliaris) was 4 (Herbicidal ratio of 70% or more and less than 90%).
For `COCC[S+]([O-])c1nnc2c(C(=O)Nc3nnc(C)o3)ccc(C(F)(F)F)n12` (centres unmarked) [1-073], the “H (herbicidal effect grade)” value [1] was 5 (Herbicidal ratio of 90% or more (almost completely withered)), the “E (herbicidal effect grade)” value (Cyperus difformis) was 5 (Herbicidal ratio of 90% or more (almost completely withered)) and the “D (herbicidal effect grade)” value (Leptochloa chinensis) was 5 (Herbicidal ratio of 90% or more (almost completely withered)). The “b (effect on crop grade)” value [2] was 4 (Herbicidal ratio of 70% or more and less than 90%), the J (Alopecurus myosuroides) was 2 (Herbicidal ratio of 20% or more and less than 40%) and the H [3] was 5 (Herbicidal ratio of 90% or more (almost completely withered)). The M (Abutilon theophrasti) was 5 (Herbicidal ratio of 90% or more (almost completely withered)), the I (Avena fatua) was 3 (Herbicidal ratio of 40% or more and less than 70%) and the K (Lolium multiflorum Lam.) was 3 (Herbicidal ratio of 40% or more and less than 70%). For the same compound, the Q (Galium spurium) was 2 (Herbicidal ratio of 20% or more and less than 40%), the G (Setaria viridis) was 5 (Herbicidal ratio of 90% or more (almost completely withered)) and the O (Chenopodium album) was 5 (Herbicidal ratio of 90% or more (almost completely withered)). The L (Apera spica-venti.) was 3 (Herbicidal ratio of 40% or more and less than 70%) and the F (Digitaria ciliaris) was 5 (Herbicidal ratio of 90% or more (almost completely withered)).
In the case of `Cc1nnc(NC(=O)c2ccc(C(F)(F)F)n3c(C(C)[S+](C)[O-])nnc23)o1` (centres unmarked) [1-079], the “H (herbicidal effect grade)” value [1] was 5 (Herbicidal ratio of 90% or more (almost completely withered)), the “E (herbicidal effect grade)” value (Cyperus difformis) was 5 (Herbicidal ratio of 90% or more (almost completely withered)) and the “D (herbicidal effect grade)” value (Leptochloa chinensis) was 5 (Herbicidal ratio of 90% or more (almost completely withered)). The “b (effect on crop grade)” value [2] was 5 (Herbicidal ratio of 90% or more (almost completely withered)), the J (Alopecurus myosuroides) was 2 (Herbicidal ratio of 20% or more and less than 40%) and the H [3] was 5 (Herbicidal ratio of 90% or more (almost completely withered)). The M (Abutilon theophrasti) was 5 (Herbicidal ratio of 90% or more (almost completely withered)), the I (Avena fatua) was 4 (Herbicidal ratio of 70% or more and less than 90%) and the K (Lolium multiflorum Lam.) was 3 (Herbicidal ratio of 40% or more and less than 70%). For the same compound, the Q (Galium spurium) was 4 (Herbicidal ratio of 70% or more and less than 90%), the G (Setaria viridis) was 5 (Herbicidal ratio of 90% or more (almost completely withered)) and the O (Chenopodium album) was 5 (Herbicidal ratio of 90% or more (almost completely withered)). For the same compound, the F (Digitaria ciliaris) was 5 (Herbicidal ratio of 90% or more (almost completely withered)).
`Cc1nnc(NC(=O)c2ccc(C(F)(F)F)n3c(C(C)S(C)(=O)=O)nnc23)o1` (centres unmarked) [1-080] was tested, and the “H (herbicidal effect grade)” value [1] was 5 (Herbicidal ratio of 90% or more (almost completely withered)), the “E (herbicidal effect grade)” value (Cyperus difformis) was 5 (Herbicidal ratio of 90% or more (almost completely withered)) and the “D (herbicidal effect grade)” value (Leptochloa chinensis) was 5 (Herbicidal ratio of 90% or more (almost completely withered)). For the same compound, the “b (effect on crop grade)” value [2] was 5 (Herbicidal ratio of 90% or more (almost completely withered)), the J (Alopecurus myosuroides) was 5 (Herbicidal ratio of 90% or more (almost completely withered)) and the H [3] was 5 (Herbicidal ratio of 90% or more (almost completely withered)). For the same compound, the M (Abutilon theophrasti) was 5 (Herbicidal ratio of 90% or more (almost completely withered)), the I (Avena fatua) was 4 (Herbicidal ratio of 70% or more and less than 90%) and the K (Lolium multiflorum Lam.) was 4 (Herbicidal ratio of 70% or more and less than 90%). For the same compound, the Q (Galium spurium) was 5 (Herbicidal ratio of 90% or more (almost completely withered)), the G (Setaria viridis) was 5 (Herbicidal ratio of 90% or more (almost completely withered)) and the O (Chenopodium album) was 5 (Herbicidal ratio of 90% or more (almost completely withered)). For the same compound, the L (Apera spica-venti.) was 5 (Herbicidal ratio of 90% or more (almost completely withered)) and the F (Digitaria ciliaris) was 5 (Herbicidal ratio of 90% or more (almost completely withered)).
